According to BindingDB's records for doi:10.1016/S0045-2068(03)00026-9 (Keio University, 2003):

target: T1, Polyphenol oxidase 2 (Agaricus bisporus, UniProt O42713); assay: Spectrophotometic Assay; conditions: pH 6.8; 30 °C
T1 sequence (O42713 whole entry): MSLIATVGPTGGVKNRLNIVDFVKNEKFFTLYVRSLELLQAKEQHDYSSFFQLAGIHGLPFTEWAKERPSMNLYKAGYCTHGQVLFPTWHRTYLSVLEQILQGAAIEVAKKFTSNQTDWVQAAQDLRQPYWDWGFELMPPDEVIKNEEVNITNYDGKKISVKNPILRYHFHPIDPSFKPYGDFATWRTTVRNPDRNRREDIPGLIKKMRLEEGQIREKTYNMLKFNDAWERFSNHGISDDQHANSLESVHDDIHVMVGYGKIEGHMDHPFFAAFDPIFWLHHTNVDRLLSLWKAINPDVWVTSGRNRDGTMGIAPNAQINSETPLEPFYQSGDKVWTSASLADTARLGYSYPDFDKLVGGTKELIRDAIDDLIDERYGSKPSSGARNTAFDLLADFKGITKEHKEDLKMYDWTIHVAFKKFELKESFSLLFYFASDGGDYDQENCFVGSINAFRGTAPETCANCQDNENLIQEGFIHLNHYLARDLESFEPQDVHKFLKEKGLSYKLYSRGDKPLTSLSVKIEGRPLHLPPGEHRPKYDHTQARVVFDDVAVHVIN
Source text: The IC50 values were obtained from a spectrophotometric assay.

SMILES | IC50
O=NN(O)Cc1ccccc1O [N-nitrosohydroxylamine N-substituted, 4] | 19.2 µM
O=NN(O)Cc1cccc(O)c1 [N-nitrosohydroxylamine N-substituted, 5] | 20.3 µM
O=NN(O)Cc1ccc(O)cc1 [N-nitrosohydroxylamine N-substituted, 6] | 13.7 µM
O=NN(O)Cc1ccc(O)cc1O [N-nitrosohydroxylamine N-substituted, 7] | 11.6 µM
O=NN(O)Cc1cc(O)ccc1O [N-nitrosohydroxylamine N-substituted, 8] | 23.8 µM
O=NN(O)Cc1ccc(Cl)cc1 [N-nitrosohydroxylamine N-substituted, 9] | 13.1 µM
COc1ccc(CN(O)N=O)cc1 [N-nitrosohydroxylamine N-substituted, 10] | 9.7 µM
CC(C)(C)c1ccc(CN(O)N=O)cc1 [N-nitrosohydroxylamine N-substituted, 11] | 15.8 µM
